From patent US4735953A, “Pharmaceutical preparation for learning stimulation and memory improvement” (priority 1986, dated 1988)

Columns and labels:
[1] = test system: learning ability of rats in a shuttle chamber; test: Active avoidance learning in a shuttle chamber, rats; assay type: in vivo, rat; conditions: rats, hypodermally 2 mg/kg
Text: (§1) In these experiments rats are taught to avoid an electric shock by escaping into a next chamber communicating with the first chamber by means of a special opening--a door. An electric current is applied to the chamber door consisting of metal plates. A conditional irritator is a light signal together with a sound click. The learning series consisted of 50 combinations. The number of combinations necessary for the animal's learning to escape into another chamber in response to the conditional signal was determined. Five correct responses out of 6 where regarded as the proof of stability of the acquired knowledge and were denoted as a "learning criterion". After 7 days the educational procedure was repeated, and again the number of combinations necessary to acquire the "learning criterion" was determined. In the case of difference between the first and second readings the percentage of retention of the acquired knowledge was calculated.
(§2) In this experiment the effect of the preparation according to the present invention and prior art preparations was separately evaluated for the purpose of comparison on well-learning and on specially selected poorly learning rats. […] To the poorly learning rats the animals were assigned which reached no "learning criterion" in the teaching series of 50 combinations, or, in other words, a stable knowledge of active avoidance was not worked out in them. […] The preparation according to the present invention and the prior art comparison preparations were administered before the first teaching series or thereafter.
(§3) Also studied were the effects produced upon a single and repeated administration of the preparation according to the present invention for 14 days.

[2] = test system: learning ability of rats preliminarily sorted out for poor learning ability; test: Active avoidance learning in a shuttle chamber, rats sorted out for poor learning ability; assay type: in vivo, rat; conditions: poorly learning rats, hypodermally 2 mg/kg
Text: as §1, §2, §3

[3] = test system: rabbit's brain hemispheres; test: Amplitude of induced potential in brain hemispheres (acoustic irritation); assay type: in vivo; conditions: rabbits
Protocol: (§4) In the third series of experiments the effect of the preparation according to the present invention on the functional brain asymmetry was studied. The experiments were carried out on rabbits with electrodes implanted in the brain. The electrodes under nembutal narcosis (40 mg/kg) were implanted strictly symmetrically into the bearing zone of the temporal cortex of the right and left hemispheres on its lateral surface, whereas the indifferent electrode was secured to the nasal bones of a rabbit's skull. The acoustic irritation was applied through earphones. As the acoustic irritation a sound click caused by a square-shaped pulse from an electronic stimulator with a frequency of 0.1-0.2 Hz was used; the click intensity was adjusted within the range of from 5 to 80 Db. The amplification of the taken-off biopotentials was effected on an electroencephalograph; the induced potentials were obtained by means of an analyzer. 100 experiments on 20 animals were thus conducted; the interval between experiments on one animal was 7 days. The amplitude and form of the induced potential were determined. The asymmetry factor (Kas) was calculated by the formula: [formula] Ar --amplitude of the induced potential of the […] hemisphere, μV;
(§5) A1 --amplitude of the induced potential of the left hemisphere.
(§6) The test preparations were administered hypodermally in the form of 0.5-1.5% aqueous solutions 20 minutes before the beginning of the measurements.

[4] = test system: cerebral cortex of rabbits; test: Asymmetry factor by induced potential in the hearing zone of the cerebral cortex; assay type: in vivo, rabbit
Protocol: as §4, §5, §6

[5] = test system: learning ability of mice in a shuttle chamber; test: Learning ability of mice in a shuttle chamber; assay type: in vivo, mouse; conditions: mice
[6] = hypodermally 1 mg/kg, 12 day (retention)
[7] = hypodermally 3 mg/kg, 12 day (retention)

Nc1ccncc1 [4-aminopyridine]
Number of combinations to reach the "learning criterion" in II teaching series (after 7 days) [1]: 7.4 ± 1.2
Number of combinations to reach the "learning criterion" in the I teaching series [1]: 17.8 ± 1.2
Number of non-taught animals in the group [1]: 0/20
Percentage knowledge retention [1]: 60%
% of knowledge retention [2]: 40.9%
Number of combinations till appearance of "learning criterion", I teaching [2]: 32.5 ± 2.8
Number of combinations till appearance of "learning criterion", II-checking of retention of knowledge [2]: 19.2 ± 1.7
Number of untaught animals in the group [2]: 11/20
amplitude of induced potentials (in words) [3]: increased amplitude of the induced potential
Change of amplitude of induced potential, % of the control, left hemisphere ([3]; hypodermally 2 mg/kg): 140%
Change of amplitude of induced potential, % of the control, right hemisphere ([3]; hypodermally 2 mg/kg): 175%
Mean value of amplitude of induced potential, % ([3]; hypodermally 2 mg/kg): 160%
asymmetry factor (in words) [4]: did not change or reduced the factor of asymmetry
Asymmetry factor, Preparation ([4]; hypodermally 2 mg/kg, control 0.26 ± 0.06): 0.12 ± 0.02
retention of the knowledge of active avoidance (in words) [5]: does not affect the retention of the knowledge of active avoidance
teaching (in words) [5]: facilitates teaching
% of avoidance reactions, group I ([5]; hypodermally 1 mg/kg, 1st day): 17%
% of avoidance reactions, group II ([5]; hypodermally 1 mg/kg, 1st day): 21%
% of avoidance reactions, group III ([5]; hypodermally 1 mg/kg, 1st day): 38%
% of avoidance reactions, group IV ([5]; hypodermally 1 mg/kg, 1st day): 51%
% of avoidance reactions, group V ([5]; hypodermally 1 mg/kg, 1st day): 55%
% of avoidance reactions, group VI ([5]; hypodermally 1 mg/kg, 1st day): 60%
% of avoidance reactions, group I [5, 6]: 48%
% of avoidance reactions, group II [5, 6]: 70%
% of avoidance reactions, group III [5, 6]: 72%
% of avoidance reactions, group IV [5, 6]: 71%
% of avoidance reactions, group V [5, 6]: 70%
% of avoidance reactions, group VI [5, 6]: 75%
% of avoidance reactions, group I ([5]; hypodermally 3 mg/kg, 1st day): 20%
% of avoidance reactions, group II ([5]; hypodermally 3 mg/kg, 1st day): 30%
% of avoidance reactions, group III ([5]; hypodermally 3 mg/kg, 1st day): 54%
% of avoidance reactions, group IV ([5]; hypodermally 3 mg/kg, 1st day): 61%
% of avoidance reactions, group V ([5]; hypodermally 3 mg/kg, 1st day): 79%
% of avoidance reactions, group VI ([5]; hypodermally 3 mg/kg, 1st day): 82%
% of avoidance reactions, group I [5, 7]: 46%
% of avoidance reactions, group II [5, 7]: 73%
% of avoidance reactions, group III [5, 7]: 74%
% of avoidance reactions, group IV [5, 7]: 74%
% of avoidance reactions, group V [5, 7]: 80%
% of avoidance reactions, group VI [5, 7]: 80%
